# Laboratory results: article PMC9037180, “Ligand-based design and synthesis of N'-Benzylidene-3,4-dimethoxybenzohydrazide derivatives as potential antimicrobial agents; evaluation by in vitro, in vivo, and in silico approaches with SAR studies” (Journal of Enzyme Inhibition and Medicinal Chemistry, 2022)
# How the values were obtained:
# [1] = tested on: Acientobacter (A. baumanii) ATCC 19606; test: Agar well diffusion assay; assay type: cell-based; conditions: result in words
# Description: (§1) The agar well diffusion assay was first done to evaluate the antimicrobial activities of the different target compounds (4a–j) against gram-positive bacteria, gram-negative bacteria, and fungi (Table 1A). […] First, the antibacterial activities were tested against S. aureus ATCC 6538, Acientobacter (A. baumanii) ATCC 19606, S. typhi, E. coli, and P. aeruginosa as examples of the most common gram-positive and gram-negative bacteria, in comparison to vancomycin and ceftriaxone as two reference standards. In addition, the antifungal activities were screened against C. albicans, in comparison to amphotericin as a reference standard. […] The antibacterial activities of some tested compounds (4a, 4b, 4h, and 4e) against gram-positive and gram-negative bacteria by agar well diffusion assay are represented in the supplementary data (Figure SI1).
# (§2) A modification of the agar well diffusion method[55] was done to detect the antimicrobial activities of different compounds (4a–j) against gram-positive bacteria, gram-negative bacteria, and fungi. The work was carried out at the Microbiology Department Faculty of Medicine for Girls Al-Azhar University. By visual comparison to 0.5 McFarland turbidity standards, a suspension of each bacterial strain was prepared. The zones of inhibition were measured in cm.
# S. aureus [2] = test: Minimal bactericidal concentration (MBC); assay type: cell-based
# Description: (§3) After determining the MIC for the target compounds, the minimal bactericidal concentration (MBC) for each compound that is required to kill each one of the above-mentioned microorganisms was assessed.
# E. coli = test: Minimal bactericidal concentration (MBC); assay type: cell-based
# Description: as §3
# [3] = Cytotoxicity on cells using MTT assay; assay type: cell-based; conditions: African green monkey, Vero cells (normal mammalian cell line)
# Description: The newly synthesised compounds were looked deeply into their efficacy using in silico, in vitro, and in vivo approaches. On the other hand, the cytotoxicity assay was performed for the tested compounds using a normal mammalian Vero cell line by the MTT assay[31]^,[32].
# Moreover, the cytotoxicity values of the target compounds were determined to calculate their corresponding IC50 values through the MTT assay. The IC50 value indicates the compound’s concentration that is required to inhibit 50% of the target cells.
# The MTT (3–(4,5-dimethylthiazol-2-yl)-2,5-diphenyltetrazolium bromide) tetrazolium reduction assay protocol was applied to determine the cytotoxicity of the target compounds (4a–j) on cells.
# E. coli ATCC 25922 = test: Minimal inhibitory concentration (MIC), broth dilution
# S. typhi [4] = test: Minimal bactericidal concentration (MBC); assay type: cell-based; conditions: Salmonella enterica
# S. typhi [5] = test: Agar well diffusion assay; assay type: cell-based; conditions: result in words
# Description: as §1, §2
# S. aureus ATCC 6538 = test: Agar well diffusion assay; assay type: cell-based; conditions: result in words
# Description: as §1, §2
# P. aeruginosa = test: Agar well diffusion assay; assay type: cell-based; conditions: result in words
# Description: as §1, §2
# Aciento sensitive = test: Minimal bactericidal concentration (MBC); assay type: cell-based, A. baumanii; conditions: Aciento sensitive
# Description: as §3
# S. aureus [6] = test: Biochemical analysis in S. aureus-infected rats; assay type: in vivo; conditions: first and second dose (1.9 and 3.8 mg/kg IP daily for one week)
# Description: The compounds 4h and 4j were dissolved in DMSO (dimethyl sulfoxide) then further dilutions were made by using sterile distilled water. The doses of both candidates were calculated according to the method given by Paget and Barnes[60]. Sterile distilled water, DEMSO, and investigated compounds (4h (1.9 and 3.8 mg/kg) and 4j (1.9 and 3.8 mg/kg)) were injected in a volume of 4 ml/kg[61]. The experiment lasts two weeks, the 1st week for induction of infection in the infected groups and the 2nd week for the administration of the compounds in all groups. […]
# ALT and AST were determined[66] using commercial kits obtained from Diamond Diagnostics, Egypt.
# Serum urea was determined by using the modified Berthelot–Searcy method. Serum creatinine activity was also assessed by using the application of Jaffe’s reaction.
# Serum levels of the pro-inflammatory cytokine, TNF-α, were determined by the quantitative enzyme immunoassay (EIA) kit purchased from R&D Systems (USA) according to the method of Howard and Harada[69], while that of anti-inflammatory cytokine IL-10 was according to Croft et al.. […]
Compound,zones of inhibition (inhibitory activity) [1],MBC (S. aureus [2]; Staphylococcus aureus) [µM],MBC (E. coli; Escherichia coli) [µM],IC50 [3] [µM],"MIC (E. coli ATCC 25922; Escherichia coli, ATCC25922) [µM]",MBC (S. typhi [4]) [µM],zones of inhibition (inhibitory activity) (S. typhi [5]),zones of inhibition (inhibitory activity) (S. aureus ATCC 6538),zones of inhibition (inhibitory activity) (P. aeruginosa),MBC (S. aureus [2]; S. aureus) [µM],MBC (E. coli; E. coli) [µM],MBC (Aciento sensitive) [µM],"renal and liver functions, oxidative stress and inflammatory markers (urea, creatinine, ALT, AST, GSH, MDA, TNF-α, IL-10) (S. aureus [6])",MIC (E. coli ATCC 25922; E. coli (EC)) [µM]
"COc1ccc(C(=O)NN=Cc2ccc3ccccc3n2)cc1OC [Compound 4i, N'-(quinolin-2-ylmethylene)-3,4-dimethoxybenzohydrazide]",most inhibitory activity,186,186,305,23.3,186,,,,,,,,
"N'-((3a,7a-dihydro-1H-indol-3-yl)methylene)-3,4-dimethoxybenzohydrazide [Compound 4h]",,,,,,,best activities,best activities,best activities,96.87,96.87,96.87,significant improvement in all the measured parameters,48.28
